Data taken from patent US20190002436A1, “RESPIRATORY SYNCYTIAL VIRUS INHIBITORS” (MEDIVIR AB, priority 2015, published 2019).

Each compound was assayed on RSV (Long) (assay: RSV cytopathic effect (CPE)-based viral replication assay). Conditions: human respiratory syncytial virus, HEp-2, 72 h, HEp-2 cells infected with RSV Long at MOI 0.015; 3 days at 37° C.; cell viability by CellTiter-Glo luminescence; read-out: EC50 (nm).
Format: cell-based, respiratory syncytial virus (RSV)
Method: Example A: RSV Cytopathic Effect
Compounds of the invention are initially tested in a cytopathic effect (CPE)-based viral replication assay using immortalized cells and a laboratory strain of RSV (Long). This assay evaluates the ability of a compound to inhibit viral replication.
Assay plates are prepared by seeding 2,500 HEp-2 cells (ATCC) per well of a 384-well black clear-bottom plate (Greiner Bio-One) in 20 μL of assay media (defined as DMEM supplemented with 2% heat-inactivated fetal bovine serum and 1% Penicillin/Streptomycin). Assay plates are incubated overnight at 37° C. in an incubator containing 5% CO2. The following day, a 10-point serial dilution of test compound is prepared in DMSO. Compounds are subsequently diluted with assay media and 20 μL of diluted compound (containing 1.5% DMSO) is transferred to an assay plate for evaluation of antiviral activity.
For the CPE assay, cells are infected at a Multiplicity of Infection (MOI) of 0.015 using 20 μL of RSV Long (ATCC) diluted in assay media. The DMSO concentration is constant throughout the assay plate, including the negative and positive controls. The assay plate is incubated for 3 days at 37° C. in an incubator containing 5% CO2. Cell viability is evaluated with the addition of 10 μL of CellTiter-Glo (ProMega). Luminescence is measured using an EnVision plate reader (Perkin Elmer). EC50 values are calculated using the raw data from the CPE assays.

Compound	EC50 [nM]
CS(=O)(=O)N1CC2(C1)C(=O)N(Cc1ncc3ccccc3c1-c1ccc(C(F)(F)F)cc1)c1ccccc12 [Example 79, 1-(Methylsulfonyl)-1′-((4-(4-(trifluoromethyl)phenyl)isoquinolin-3-yl)methyl)spiro[azetidine-3,3′-indolin]-2′-one]	8.7
CS(=O)(=O)N1CC2(C1)C(=O)N(Cc1ncc3ccccc3c1-c1ccc(C#N)nc1)c1ccccc12 [Example 45]	3
CS(=O)(=O)N1CCC2(CC1)C(=O)N(Cc1ncc3ccccc3c1-c1cnc(C(N)=O)cn1)c1cnccc12 [Example 2017]	34
CC1(n2c(=O)n(Cc3ncc4ccccc4c3-c3ccc(C4(N)COC4)nc3)c3cnccc32)CC1 [Example 2022]	19
NCCCC(=O)N1CCC2(CC1)C(=O)N(Cc1ncc3ccccc3c1-c1cccnc1)c1cnccc12 [Example 142, 1-(4-aminobutanoyl)-1′-((4-(pyridin-3-yl)isoquinolin-3-yl)methyl)spiro[piperidine-4,3′-pyrrolo[2,3-c]pyridin]-2′(1′H)-one]	5.8
NC1(C(=O)N2CCC3(CC2)C(=O)N(Cc2ncc4ccccc4c2-c2ccncc2)c2cnccc23)CC1 [Example 2016]	7.1
COC(=O)N1CCC(n2c(=O)n(Cc3ncc4cc(Cl)ccc4c3CCCCO)c3cnccc32)CC1 [Example 20, Methyl 4-(3-((7-chloro-4-(4-hydroxybutyl)isoquinolin-3-yl)methyl)-2-oxo-2,3-dihydro-1H-imidazo[4,5-c]pyridin-1-yl)piperidine-1-carboxylate]	8.5
COC(=O)N1CC2(C1)C(=O)N(Cc1ncc3ccccc3c1-c1cncs1)c1ccccc12 [Example 100, Methyl 2′-oxo-1′-((4-(thiazol-5-yl)isoquinolin-3-yl)methyl)spiro[azetidine-3,3′-indoline]-1-carboxylate]	0.4
CNC1(C(=O)N2CCC3(CC2)C(=O)N(Cc2ncc4ccccc4c2-c2ccc(C(=O)NC4CC4)nc2)c2cnccc23)CC1 [Example 109, N-cyclopropyl-5-(3-((1-(1-(methylamino)cyclopropanecarbonyl)-2′-oxospiro[piperidine-4,3′-pyrrolo[2,3-c]pyridin]-1′(2′H)-yl)methyl)isoquinolin-4-yl)picolinamide]	3.8
CS(=O)(=O)N1CCC2(CC1)C(=O)N(Cc1ncc3cc(F)ccc3c1-c1cncs1)c1cnccc12 [Example 2010]	1.5
O=c1n(Cc2ncc3ccccc3c2CCCCO)c2cnccc2n1CC(F)(F)F [Example 3c, 3-((4-(4-hydroxybutyl)isoquinolin-3-yl)methyl)-1-(2,2,2-trifluoroethyl)-1H-imidazo[4,5-c]pyridin-2(3H)-one]	23
CS(=O)(=O)N1CC2(C1)C(=O)N(Cc1ncc3ccccc3c1-c1ccc(F)cc1)c1ccccc12 [Example 74]	5.8
NC1(C(=O)N2CCC3(CC2)C(=O)N(Cc2ncc4ccccc4c2-c2ccc(C(=O)O)nc2)c2cnccc23)CC1 [Example 50b, 5-(3-((1-(1-aminocyclopropanecarbonyl)-2′-oxospiro[piperidine-4,3′-pyrrolo[2,3-c]pyridin]-1′(2′H)-yl)methyl)isoquinolin-4-yl)picolinic acid]	4.3
COC(=O)N1CCC(n2c(=O)n(Cc3ncc4ccccc4c3CCCCO)c3cncc(Cl)c32)CC1 [Example 15, Methyl 4-(7-chloro-3-((4-(4-hydroxybutyl)isoquinolin-3-yl)methyl)-2-oxo-2,3-dihydro-1H-imidazo[4,5-c]pyridin-1-yl)piperidine-1-carboxylate]	2.2
O=c1n(Cc2ncc3ccccc3c2CCCC(F)(F)F)c2cnccc2n1C1CC1 [Example 8e, 1-cyclopropyl-3-((4-(4,4,4-trifluorobutyl)isoquinolin-3-yl)methyl)-1H-imidazo[4,5-c]pyridin-2(3H)-one]	9
CS(=O)(=O)Nc1cncc(-c2c(CN3C(=O)C4(CN(C(=O)C5(N)CC5)C4)c4ccccc43)ncc3ccccc23)c1 [Example 2006]	26
NC(=O)c1ccc(-c2c(CN3C(=O)C4(CCN(C(=O)[C@@H]5CCCN5)CC4)c4ccncc43)ncc3ccccc23)cn1 [Example 2033]	27
CS(=O)(=O)N1CCC2(CC1)C(=O)N(Cc1ncc3ccccc3c1-c1ccc(C3(N)CC3)nc1)c1cnccc12 [Example 2026]	2.2
CC(C)(C)NC(=O)N1CC2(C1)C(=O)N(Cc1ncc3ccccc3c1CCCCO)c1ccccc12 [Example 56, N-(tert-butyl)-1′-((4-(4-hydroxybutyl)isoquinolin-3-yl)methyl)-2′-oxospiro[azetidine-3,3′-indoline]-1-carboxamide]	1.3

More lines, now with the values ahead:

EC50 [nM]	Compound
1.3	NC(=O)N1CC2(C1)C(=O)N(Cc1ncc3ccccc3c1-c1ccc(S(N)(=O)=O)cc1)c1ccccc12 [Example 116b, 2′-oxo-1′-((4-(4-sulfamoylphenyl)isoquinolin-3-yl)methyl)spiro[azetidine-3,3′-indoline]-1-carboxamide]
5.1	CC1(n2c(=O)n(Cc3ncc4ccccc4c3-c3ccc(C#N)nc3)c3ccccc32)CC1 [Example 90b, 5-(3-((3-(1-methylcyclopropyl)-2-oxo-2,3-dihydro-1H-benzo[d]imidazol-1-yl)methyl)isoquinolin-4-yl)picolinonitrile]
0.4	CC1(OC(=O)N2CC3(C2)C(=O)N(Cc2ncc4ccccc4c2-c2ccc(C#N)nc2)c2ccccc23)CC1 [Example 91b, 1-Methylcyclopropyl 1′-((4-(6-cyanopyridin-3-yl)isoquinolin-3-yl)methyl)-2′-oxospiro[azetidine-3,3′-indoline]-1-carboxylate]
2.6	CS(=O)(=O)N1CCC2(CC1)C(=O)N(Cc1ncc3ccccc3c1-c1ccc(C#N)nc1)c1cnccc12 [Example 66-1, 5-(3-((1-(Methylsulfonyl)-2′-oxospiro[piperidine-4,3′-pyrrolo[2,3-c]pyridin]-1′(2′H)-yl)methyl)isoquinolin-4-yl)picolinonitrile]
5.2	O=C(N1CCC2(CC1)C(=O)N(Cc1ncc3ccccc3c1-c1cccnc1)c1cnccc12)C(F)(F)F [Example 129b, 1′-((4-(Pyridin-3-yl)isoquinolin-3-yl)methyl)-1-(2,2,2-trifluoroacetyl)spiro[piperidine-4,3′-pyrrolo[2,3-c]pyridin]-2′(1′H)-one]
1.2	CNC1(C(=O)N2CCC3(CC2)C(=O)N(Cc2ncc4ccccc4c2-c2ccc(C(N)=O)nc2)c2cnccc23)CC1 [Example 108b, 5-(3-((1-(1-(Methylamino)cyclopropanecarbonyl)-2′-oxospiro[piperidine-4,3′-pyrrolo[2,3-c]pyridin]-1′(2′H)-yl)methyl)isoquinolin-4-yl)picolinamide]
17	CN(C)C1(C(=O)N2CC3(C2)C(=O)N(Cc2ncc4ccccc4c2-c2ccc(C(N)=O)nc2)c2ccccc23)CC1 [Example 113b, 5-(3-((1-(1-(Dimethylamino)cyclopropanecarbonyl)-2′-oxospiro[azetidine-3,3′-indolin]-1′-yl)methyl)isoquinolin-4-yl)picolinamide]
6	N#Cc1ccc(-c2c(CN3C(=O)C4(CCN(C(=O)C(F)(F)F)CC4)c4ccncc43)ncc3ccccc23)cn1 [Example 66-2, 5-(3-((2′-Oxo-1-(2,2,2-trifluoroacetyl)spiro[piperidine-4,3′-pyrrolo[2,3-c]pyridin]-1′(2′H)-yl)methyl)isoquinolin-4-yl)picolinonitrile]
